Laboratory results published in ChEMBL document CHEMBL5154816, “Structure-Based Discovery and Optimization of Furo[3,2-c]pyridin-4(5H)-one Derivatives as Potent and Second Bromodomain (BD2)-Selective Bromo and Extra Terminal Domain (BET) Inhibitors” (J Med Chem, 2022).

Tests used:
[1] = Metabolic stability in human liver microsomes assessed as half life at 1 uM measured up to 60 mins in presence of NADPH by HPLC-MS/MS analysis; assay type: ADME, Microsome
[2] = Metabolic stability in rat hepatocytes assessed as hepatic clearance at 1 uM measured up to 60 mins in presence of NADPH by HPLC-MS/MS analysis; assay type: ADME, cell-based, Hepatocyte
U2OS = assay: Antiproliferative activity against human U2OS cells assessed as cell growth inhibition incubated for 72 hrs by Cell titre Glo-luminiscence cell viability assay; assay type: functional, cell-based

half-life at 1 µM [1]: 15.2 min
CLhep predicted at 1 µM [2]: 17.9 mL/min/kg
CLH ([2]; 1 h, 1 µM): 0.043 mL/min/g
IC50 (U2OS): 1000 nM
Compound: Cc1cc(F)cc(C)c1Oc1ccc(C(C)(C)O)cc1-c1cn(C)c(=O)c2cc(-c3cnc(C4CCCC4)[nH]3)oc12
